Measured values taken from patent US11613546B2, “Substituted pyridotriazine compounds and uses thereof” (Gilead Sciences, Inc., priority 2021, dated 2023).
Like-named read-outs stand apart in the source and are kept apart here.

How the values were obtained:
Assay type in all cases: cell-based
HIV-1 (IIIB) = assay: Antiviral assay in MT-4 cells; details: Human immunodeficiency virus 1, IIIB, MT4, 120 h
Method: Antiviral Assay in MT-4 Cells
(§1) Compounds were tested in a high-throughput 384-well assay format for their ability to inhibit the replication of HIV-1 (IIIB) in MT-4 cells. Compounds were serially diluted (1:3) in DMSO on 384-well polypropylene plates and further diluted 200-fold into complete RPMI media (10% FBS, 1% P/S) using the Biotek Micro Flow and Labcyte ECHO acoustic dispenser. Each plate contained up to 8 test compounds, with negative (No Drug Control) and 5 μM AZT positive controls. MT-4 cells were pre-infected with 10 μL of either RPMI (mock-infected) or a fresh 1:250 dilution of HIV-1 IIIB concentrated virus stock. Infected and uninfected MT-4 cells were further diluted in complete RPMI media and added to each plate using a Micro Flow dispenser. After 5 days incubation in a humidified and temperature controlled incubator (37° C.), Cell Titer Glo (Promega) was added to the assay plates and chemiluminescence read using an Envision plate-reader. EC50 values were defined as the compound concentration that causes a 50% decrease in luminescence signal, and were calculated using a sigmoidal dose-response model to generate curve fits.

[1] = Cytotoxicity assay in MT-4 cells; details: human
Method: as §1, with “fits. Cytotoxicity Assay in MT-4 Cells Assays were performed as above except uninfected MT-4 cells were added to each well containing test compound. In addition, 10 μM puromycin was added to the last column of each assay plate to assess a base level of cytotoxicity.” for “fits.”

pLai RLuc reporter virus = assay: HIV MT-4 serum shift antiviral reporter assay; details: Human immunodeficiency virus 1, 72 h
Method: To quantify the amount of protein binding to human serum, compounds were serially diluted (1:3) in DMSO and acoustically transferred onto 384-well assay plates via a Labcyte ECHO robot. Each plate contained up to 8 test compounds, including negative and positive controls, (DMSO, 5 μM AZT respectively). Assay plates were prepared in duplicate, and tested in either CCM (cell culture media) or HS/CCM (human serum/cell culture media). MT-4 cells were first pre-infected with pLai RLuc reporter virus for 2 h at 37° C., then further diluted in either CCM (RPMI media, 10% FBS, 1% P/S) or HS/CCM (RPMI media, 10% FBS, 50% HS, 1% P/S), and subsequently added to each plate using a Biotek Micro Flow dispenser. After a 72-h incubation in a humidified and temperature controlled incubator (37° C.), Renilla Glo (Promega) was added to all assay plates and chemiluminescence read using an Envision plate-reader. EC50 values were defined as the compound concentration that causes a 50% decrease in luminescence signal, and were calculated using a sigmoidal dose-response model to generate curve fits. To determine the amount of protein binding, EC50 fold shifts (or EC50 shifts) were calculated by dividing EC50 (HS/CCM)/EC50 (CCM).

[2] = uninfected MT-4 cells, 5 days, Cell Titer Glo, read-out: CC50
[3] = read-out: RLUC 50% HS (nM), HS/CCM: 50% human serum, 72 h, Renilla Glo
[4] = read-out: RLUC CCM (nM), cell culture media (RPMI, 10% FBS), 72 h, Renilla Glo
[5] = HIV-1 IIIB infected MT-4 cells, 5 days, Cell Titer Glo, read-out: MT4 EC50

Row | SMILES | EC50 (HIV-1 (IIIB); read-out: MT4 EC50 (nM)) | CC50 at 5 days [1, 2] | EC50 (pLai RLuc reporter virus; [3]) | EC50 (pLai RLuc reporter virus; [4]) | EC50 (HIV-1 (IIIB); [5]) | CC50 at 5 days ([1]; CC50 (nM))
1 | C[C@@H]1C[C@@H](C(F)F)[C@H](C)N2CN1n1cc(C(=O)NCc3c(F)cc(F)cc3F)c(=O)c(O)c1C2=O [Example C56, (1S,2R,4R,5S)-4-(difluoromethyl)-8-hydroxy-2,5-dimethyl-7,9-dioxo-N-(2,4,6-trifluorobenzyl)-2,3,4,5,7,9-hexahydro-1,6-methanopyrido[1,2-b][1,2,5]triazonine-10-carboxamide] | 1.1 nM | 10100 nM | 24.9 nM | 0.52 nM |  | 
2 | CC(C)[C@@H]1CC[C@H](C)N2CN1n1cc(C(=O)NCc3c(F)cc(F)cc3F)c(=O)c(O)c1C2=O [Example C75, (1S,2S,5S)-8-hydroxy-2-isopropyl-5-methyl-7,9-dioxo-N-(2,4,6-trifluorobenzyl)-2,3,4,5,7,9-hexahydro-1,6-methanopyrido[1,2-b][1,2,5]triazonine-10-carboxamide] |  | 10900 nM | 277 nM | 1.02 nM | 2 nM | 
3 | C[C@H]1CCC2(CCOC2)N2CN1C(=O)c1c(O)c(=O)c(C(=O)NCc3c(F)cc(F)cc3F)cn12 (stereo partly drawn) [Example C86, (1′S,5′S)-8′-hydroxy-5′-methyl-7′,9′-dioxo-N-(2,4,6-trifluorobenzyl)-4,4′,5,5′,7′,9′-hexahydro-2H,3′H-spiro[furan-3,2′-[1,6]methanopyrido[1,2-b][1,2,5]triazonine]-10′-carboxamide] |  |  | 14.1 nM | 0.27 nM | 0.5 nM | 26000 nM
4 | C[C@@H]1C[C@H](F)[C@H](CF)N2CN1n1cc(C(=O)NCc3c(F)cc(F)cc3F)c(=O)c(O)c1C2=O [Example C99, (1S,2R,4S,5S)-4-fluoro-5-(fluoromethyl)-8-hydroxy-2-methyl-7,9-dioxo-N-(2,4,6-trifluorobenzyl)-2,3,4,5,7,9-hexahydro-1,6-methanopyrido[1,2-b][1,2,5]triazonine-10-carboxamide] |  | 9440 nM | 349 nM | 0.52 nM | 1.7 nM | 
5 | C[C@H]1CCC2(CCC2)N2CN1C(=O)c1c(O)c(=O)c(C(=O)NCc3c(F)cc(F)cc3F)cn12 [Example C105, (1′S,5′S)-8′-hydroxy-5′-methyl-7′,9′-dioxo-N-(2,4,6-trifluorobenzyl)-4′,5′,7′,9′-tetrahydro-3′H-spiro[cyclobutane-1,2′-[1,6]methanopyrido[1,2-b][1,2,5]triazonine]-10′-carboxamide] |  |  | 998 nM | 1.38 nM | 3 nM | 13600 nM
6 | CO[C@@H]1CC[C@H](C)N2CN1n1cc(C(=O)NCc3c(F)cc(F)cc3F)c(=O)c(O)c1C2=O [Example C47, (1R,2R,5S)-8-hydroxy-2-methoxy-5-methyl-7,9-dioxo-N-(2,4,6-trifluorobenzyl)-2,3,4,5,7,9-hexahydro-1,6-methanopyrido[1,2-b][1,2,5]triazonine-10-carboxamide] |  | 11500 nM | 196 nM | 1.71 nM | 1.8 nM | 
7 | CC(C)[C@@H]1C=C[C@H](C)N2CN1n1cc(C(=O)NCc3c(F)cc(F)cc3F)c(=O)c(O)c1C2=O [Example C74, (1S,2R,5S)-8-hydroxy-2-isopropyl-5-methyl-7,9-dioxo-N-(2,4,6-trifluorobenzyl)-2,5,7,9-tetrahydro-1,6-methanopyrido[1,2-b][1,2,5]triazonine-10-carboxamide] |  | 6810 nM | 325 nM | 0.47 nM | 0.9 nM | 
8 | C[C@@H]1C[C@H](F)[C@H](C)N2CN1n1cc(C(=O)NCc3c(F)cc(F)cc3F)c(=O)c(O)c1C2=O [Example C34, (1S,2R,4S,5S)-4-fluoro-8-hydroxy-2,5-dimethyl-7,9-dioxo-N-(2,4,6-trifluorobenzyl)-2,3,4,5,7,9-hexahydro-1,6-methanopyrido[1,2-b][1,2,5]triazonine-10-carboxamide] |  | 8360 nM | 938 nM | 0.59 nM | 1.4 nM | 
9 | C[C@H]1[C@@H](F)C[C@H](C)N2CN1C(=O)c1c(O)c(=O)c(C(=O)NCc3ccc(F)cc3F)cn12 [Example C58, (1S,2S,4S,5S)—N-(2,4-difluorobenzyl)-4-fluoro-8-hydroxy-2,5-dimethyl-7,9-dioxo-2,3,4,5,7,9-hexahydro-1,6-methanopyrido[1,2-b][1,2,5]triazonine-10-carboxamide] |  | 11300 nM | 294 nM | 0.28 nM | 1.5 nM | 
10 | C[C@@H]1C=C[C@@H](C)N2CN1C(=O)c1c(O)c(=O)c(C(=O)NCc3c(F)cc(F)cc3F)cn12 [Example C64, (1S,2R,5R)-8-hydroxy-2,5-dimethyl-7,9-dioxo-N-(2,4,6-trifluorobenzyl)-2,5,7,9-tetrahydro-1,6-methanopyrido[1,2-b][1,2,5]triazonine-10-carboxamide] |  | 11400 nM | 150 nM | 0.27 nM | 0.8 nM | 
11 | C[C@H]1CC[C@@H](CF)N2CN1C(=O)c1c(O)c(=O)c(C(=O)NCc3ccc(F)cc3F)cn12 [Example C45, (1S,2S,5S)—N-(2,4-difluorobenzyl)-2-(fluoromethyl)-8-hydroxy-5-methyl-7,9-dioxo-2,3,4,5,7,9-hexahydro-1,6-methanopyrido[1,2-b][1,2,5]triazonine-10-carboxamide] |  | 11000 nM |  |  | 1.8 nM | 
12 | C[C@H]1C=CC2(COC(C)(C)C2)N2CN1C(=O)c1c(O)c(=O)c(C(=O)NCc3c(F)cc(F)cc3F)cn12 (stereo partly drawn) [Example C9, (1′S,5′S)-8′-hydroxy-5,5,5′-trimethyl-7′,9′-dioxo-N-(2,4,6-trifluorobenzyl)-4,5,7′,9′-tetrahydro-2H,5′H-spiro[furan-3,2′-[1,6]methanopyrido[1,2-b][1,2,5]triazonine]-10′-carboxamide] |  |  |  |  |  | 25300 nM
13 | C[C@H]1CCC(C)(C)N2CN1C(=O)c1c(O)c(=O)c(C(=O)NCc3c(F)cc(F)cc3F)cn12 [Example C87, (1S,5S)-8-hydroxy-2,2,5-trimethyl-7,9-dioxo-N-(2,4,6-trifluorobenzyl)-2,3,4,5,7,9-hexahydro-1,6-methanopyrido[1,2-b][1,2,5]triazonine-10-carboxamide] |  |  | 198 nM | 0.68 nM |  | 
14 | C[C@@H]1CCC[C@@H](C)N2CN1C(=O)c1c(O)c(=O)c(C(=O)NCc3c(F)cc(F)cc3F)cn12 [Example C22, (1S,2R,6R)-9-hydroxy-2,6-dimethyl-8,10-dioxo-N-(2,4,6-trifluorobenzyl)-3,4,5,6,8,10-hexahydro-2H-1,7-methanopyrido[1,2-b][1,2,5]triazecine-11-carboxamide] |  | 16300 nM |  |  | 2.2 nM | 
15 | CC1N2C(=O)c3c(O)c(=O)c(C(=O)NCc4c(F)cc(F)cc4F)cn3N1[C@H](C)C=C[C@@H]2C (stereo partly drawn) [Example C100, (1S,2R,5S)-8-hydroxy-2,5,13-trimethyl-7,9-dioxo-N-(2,4,6-trifluorobenzyl)-2,5,7,9-tetrahydro-1,6-methanopyrido[1,2-b][1,2,5]triazonine-10-carboxamide] |  | 16200 nM |  |  | 0.8 nM | 
16 | CCC1N2C(=O)c3c(O)c(=O)c(C(=O)NCc4c(F)cc(F)cc4F)cn3N1[C@H](C)C=C[C@@H]2C (stereo partly drawn) [Example C101, (1S,2R,5S)-13-ethyl-8-hydroxy-2,5-dimethyl-7,9-dioxo-N-(2,4,6-trifluorobenzyl)-2,5,7,9-tetrahydro-1,6-methanopyrido[1,2-b][1,2,5]triazonine-10-carboxamide] |  | 33500 nM |  |  | 19.7 nM | 
